Earlier results in article PMC9901186 (bioRxiv, 2023).

System: NOD1

In the case of `CCCCCCCCCCCC(=O)N[C@H](CCC(=O)NC(CCCC(N)C(=O)O)C(=O)O)C(=O)O` (stereo partly shown) [C12-iE-DAP], the “greater activation of NOD1-dependent NF-κB reporter relative to iE-DAP” value is given as ~ 100 fold.
